Experiments:
[1] = target: T1, c-Myc protein (Homo sapiens, UniProt P01106); experiment: Ability of compounds to degrade c-Myc protein in HL60 cells (ELISA); assay type: cell-based; conditions: HL-60, 1 μM compound, 24 h, read-out: HL60 cells Protein degradation rate (1 μM)
T1 construct: endogenous in cells; host or cells: HL60 cells

[2] = tested on: HL60 cells; experiment: Anti-proliferation ability of compounds on HL60 cells (CTG); assay type: cell-based, human; conditions: Homo sapiens, HL-60, 72 h, 3 days, CellTiter-Glo, read-out: HL60 cells Proliferation inhibitory activity
How it was run: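 Proliferation inhibition IC50 derived from CellTiter-Glo luminescence after 3-day compound treatment of HL60 cells plated at 20000 per well, against 0.1% DMSO controls.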

T1 sequence (P01106 whole entry): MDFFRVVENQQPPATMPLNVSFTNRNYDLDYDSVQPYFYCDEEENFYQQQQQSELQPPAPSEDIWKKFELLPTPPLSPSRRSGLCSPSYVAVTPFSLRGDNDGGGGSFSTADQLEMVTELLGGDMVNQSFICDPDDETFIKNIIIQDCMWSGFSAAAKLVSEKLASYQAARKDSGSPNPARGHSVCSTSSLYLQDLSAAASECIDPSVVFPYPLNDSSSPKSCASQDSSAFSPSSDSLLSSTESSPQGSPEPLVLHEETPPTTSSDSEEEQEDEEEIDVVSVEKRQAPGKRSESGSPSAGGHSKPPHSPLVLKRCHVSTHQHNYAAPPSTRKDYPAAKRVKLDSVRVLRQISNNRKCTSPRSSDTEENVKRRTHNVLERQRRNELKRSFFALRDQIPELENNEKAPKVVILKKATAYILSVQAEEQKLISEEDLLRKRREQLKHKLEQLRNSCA

SMILES | inhibition at 1 µM [1] [%] | IC50 [2] [nM]
O=C(Cn1c2ccccc2c2cccnc21)NCc1ccc(CNCc2ccc3c(c2)CN(C2CCC(=O)NC2=O)C3=O)cc1 (centres unmarked) [A194] | 60 to 90 | 0.14 ± 0.01
O=C(Cc1c(F)ccc2ccccc12)NCc1ccc(CNCc2ccc3c(c2)CN(C2CCC(=O)NC2=O)C3=O)cc1 (centres unmarked) [A195] | 60 to 90 | 1.4 ± 0.01
O=C1CCC(N2Cc3cc(NC(=O)C[C@H]4CC[C@H](NC(=O)NCc5cccc6ccccc56)CC4)ccc3C2=O)C(=O)N1 (some centres unmarked) [A199] | 60 to 90 | 3.3 ± 0.6
O=C(CN1CCCc2ccccc21)NCc1ccc(CNC(=O)c2ccc3c(c2)CN(C2CCC(=O)NC2=O)C3=O)cc1 (centres unmarked) [A200] | 60 to 90 | 2.5 ± 1
O=C(CN1CCCc2ccccc21)NCc1ccc(CC(=O)Nc2ccc3c(c2)CN(C2CCC(=O)NC2=O)C3=O)cc1 (centres unmarked) [A201] | 60 to 90 | 2 ± 0.9
O=C1CCC(N2Cc3cc(C(=O)NCc4ccc(CNc5nccc(-c6cccc7ccccc67)n5)cc4)ccc3C2=O)C(=O)N1 (centres unmarked) [A220] | 60 to 90 | 1.2 ± 0.1
NCC(=O)OCN1C(=O)CCC(N2Cc3cc(C(=O)NCc4ccc(CNC(=O)Cn5c6ccccc6c6cccnc65)cc4)ccc3C2=O)C1=O (centres unmarked) [A227] | 30 to 60 | 0.6 ± 0.1

More lines, now with the values ahead:

inhibition at 1 µM [1] [%] | IC50 [2] [nM] | SMILES
60 to 90 | 7.7 ± 2.1 | O=C(Cn1c2ccccc2c2cccnc21)NCc1ccc(COCc2ccc3c(c2)C(=O)N(C2CCC(=O)NC2=O)C3=O)cc1 (centres unmarked) [A192]
60 to 90 | 0.6 ± 0.1 | O=C(Cc1cccc2ccccc12)NCc1ccc(CNCc2ccc3c(c2)CN(C2CCC(=O)NC2=O)C3=O)cc1 (centres unmarked) [A193]
60 to 90 | 0.5 ± 0.1 | O=C(Cc1cccc2ccccc12)NCc1ccc(CNCc2ccc3c(c2)CN(C2CCC(=O)NC2=O)C3=O)c(F)c1 (centres unmarked) [A196]
60 to 90 | 6.6 ± 0.8 | O=C(CN1CCc2cccnc21)NCc1ccc(CNC(=O)c2ccc3c(c2)CN(C2CCC(=O)NC2=O)C3=O)cc1 (centres unmarked) [A203]
60 to 90 | 0.2 ± 0.1 | CN(CCc1cccc2ccccc12)Cc1ccc(CC(=O)Nc2ccc3c(c2)CN(C2CCC(=O)NC2=O)C3=O)cc1 (centres unmarked) [A205]
60 to 90 | 0.5 | O=C(Cn1c2ccccc2c2cccnc21)NCc1ccc(CNC(=O)c2ccc3c(c2)CN(C2CCC(=O)NC2=O)C3=O)cc1OC(F)(F)F (centres unmarked) [A208]
60 to 90 | 1.7 ± 1.3 | O=C(Cn1c2ccccc2c2cccnc21)NCc1ccc(CNC(=O)c2ccc3c(c2)CN([C@H]2CCC(=O)NC2=O)C3=O)cc1 [A224]
60 to 90 | 1.3 ± 0.2 | O=C(Cn1c2ccccc2c2cccnc21)NCc1ccc(CNC(=O)c2ccc3c(c2)CN([C@@H]2CCC(=O)NC2=O)C3=O)cc1 [A225]
60 to 90 | 5 ± 0.2 | O=C(Cn1c2ccccc2c2cccnc21)NCc1ccc(CNC(=O)c2ccc3c(c2)CN(C2CCC(=O)N(COP(=O)(O)O)C2=O)C3=O)cc1 (centres unmarked) [A228]

Source: patent US20240350643A1, “PROTEIN DEGRADATION AGENT” (SUZHOU KINTOR PHARMACEUTICALS, INC., priority 2021, published 2024)
